Assay type in all cases: cell-based
Test [1] concerns HCV replicon with NS5A genotype 2a T24A variant. The experiment in a line: Transient chimeric replicon assay, genotype 2a T24A. Particulars: Hepatitis C virus, read-out: Average EC50. The text has this:
(§1) Transiently replicating chimeric replicons containing NS5A from genotype 2-6 wild types or replicons containing variants within NS5A were constructed in the 1b-Con1 background. These replicons also contained a firefly luciferase reporter gene. Variants were introduced by site-directed mutagenesis using the Change-IT Multiple Mutation Site Directed Mutagenesis Kit (USB). After the mutagenesis was confirmed by sequence analysis, the plasmids were linearized with Scat restriction enzyme. The TranscriptAid T7 High Yield Transcription Kit (Fermentas) was used to transcribe the HCV subgenomic RNA from the plasmids. The RNA was transfected via electroporation into a Huh-7 derived cell line as described (see Middleton et al. and Tripathi et al., supra) except that 3×10^6 cells were electroporated with 15 μg of template RNA and the 96 well plate was seeded with 7.5×10^3 cells per well. Four hours post-transfection, the wells from one plate were harvested for luciferase measurement. […] Luciferin solution (50 μl, Promega) was added to each well, and luciferase activity was measured with a Victor II luminometer (Perkin-Elmer). The percent inhibition of HCV RNA replication was calculated for each compound concentration and the EC50 value was calculated using nonlinear regression curve fitting to the 4-parameter logistic equation and GraphPad Prism 4 software.

Test [2] has as its system HCV replicon with NS5A genotype 6a L31V variant. The test is described as follows: Transient chimeric replicon assay, genotype 6a L31V. Particulars: Hepatitis C virus, read-out: Average EC50.
Text: as §1
On the technique in general: In antiviral work, replicon cells carry a viral genome segment that copies itself.

The test system of test [3] is HCV replicon with NS5A genotype 6a T58A variant. The test is described as follows: Transient chimeric replicon assay, genotype 6a T58A. The following applies: Hepatitis C virus, read-out: Average EC50.
Text: as §1

Test [4] deals with HCV replicon with NS5A from genotype 4a. The test is described as follows: Stable chimeric 1b-Con1 replicon with NS5A from genotype 4a. Particulars: Hepatitis C virus, read-out: Mean EC50 ± Std. Dev.
For test [5], the system named is HCV replicon with NS5A genotype 5a L31F variant. The experiment in a line: Transient chimeric replicon assay, genotype 5a L31F. Particulars: Hepatitis C virus, read-out: Average EC50.
Text: as §1

The test system of test [6] is HCV replicon with NS5A genotype 4a L30H variant. The experiment in a line: Transient chimeric replicon assay, genotype 4a L30H. The following applies: Hepatitis C virus, read-out: Average EC50.
Text: as §1

Test [7] concerns HCV replicon with NS5A from genotype 6a. The experiment in a line: Stable chimeric 1b-Con1 replicon with NS5A from genotype 6a. Particulars: Hepatitis C virus, read-out: Mean EC50 ± Std. Dev.
In test [8] the test system is HCV replicon genotype 1b-Con1. The test is described as follows: Stable subgenomic replicon luciferase assay, genotype 1b-Con1. The following applies: Hepatitis C virus, luciferase reporter, 5% FBS, read-out: Mean EC50 ± Std. Dev.
For test [9], the system named is HCV replicon with NS5A genotype 6a wild type. The experiment in a line: Transient chimeric replicon assay, genotype 6a WT. The following applies: Hepatitis C virus, read-out: Average EC50.
Text: as §1

For test [10], the system named is HCV replicon genotype 1a-H77. The test is described as follows: Stable subgenomic replicon luciferase assay, genotype 1a-H77. The following applies: Hepatitis C virus, luciferase reporter, 5% FBS, read-out: Mean EC50 ± Std. Dev.
The test system of test [11] is HCV replicon with NS5A from genotype 5a. The test is described as follows: Stable chimeric 1b-Con1 replicon with NS5A from genotype 5a. The following applies: Hepatitis C virus, read-out: Mean EC50 ± Std. Dev.
The test system of test [12] is HCV replicon with NS5A genotype 3a wild type. The experiment in a line: Transient chimeric replicon assay, genotype 3a WT. Particulars: Hepatitis C virus, read-out: Average EC50.
Text: as §1

In test [13] the test system is HCV replicon with NS5A genotype 2b L28F variant. The experiment in a line: Transient chimeric replicon assay, genotype 2b L28F. The following applies: Hepatitis C virus, read-out: Average EC50.
Text: as §1

Test [14] has as its system HCV replicon with NS5A genotype 5a L28I variant. The test is described as follows: Transient chimeric replicon assay, genotype 5a L28I. Particulars: Hepatitis C virus, read-out: Average EC50.
Text: as §1

In test [15] the test system is HCV replicon with NS5A from genotype 2a. The test is described as follows: Stable chimeric 1b-Con1 replicon with NS5A from genotype 2a. The following applies: Hepatitis C virus, read-out: Mean EC50 ± Std. Dev.
Test [16] relates to stable subgenomic replicons with NS5A from HCV genotype 1a, 1b, 2a, 2b, 3a, 4a, 5a, and 6a. The test is described as follows: Stable subgenomic replicons, genotype panel (summary statement). The following applies: Hepatitis C virus, read-out: EC50 values against stable subgenomic replicons with NS5A from a broad range of HCV genotypes.
In test [17] the test system is HCV replicon with NS5A genotype 3a Y93H variant. The test is described as follows: Transient chimeric replicon assay, genotype 3a Y93H. Particulars: Hepatitis C virus, read-out: Average EC50.
Text: as §1

Test [18] has as its system HCV replicon with NS5A from genotype 2b. The test is described as follows: Stable chimeric 1b-Con1 replicon with NS5A from genotype 2b. The following applies: Hepatitis C virus, read-out: Mean EC50 ± Std. Dev.
The test system of test [19] is HCV replicon with NS5A genotype 2a wild type. The test is described as follows: Transient chimeric replicon assay, genotype 2a WT. The following applies: Hepatitis C virus, read-out: Average EC50.
Text: as §1

Test [20] relates to HCV replicon with NS5A from genotype 3a. The test is described as follows: Stable chimeric 1b-Con1 replicon with NS5A from genotype 3a. Particulars: Hepatitis C virus, read-out: Mean EC50 ± Std. Dev.
Test [21] has as its system HCV replicon with NS5A genotype 2b wild type. The experiment in a line: Transient chimeric replicon assay, genotype 2b WT. Particulars: Hepatitis C virus, read-out: Average EC50.
Text: as §1

For test [22], the system named is HCV variants that are resistant to other NS5A inhibitors. The test is described as follows: Transient subgenomic replicon assays, resistant variant panel (summary statement). The following applies: Hepatitis C virus, read-out: EC50 values against HCV variants resistant to other NS5A inhibitors, transient subgenomic replicon assays.
Text: as §1

In test [23] the test system is HCV replicon with NS5A genotype 5a wild type. The experiment in a line: Transient chimeric replicon assay, genotype 5a WT. Particulars: Hepatitis C virus, read-out: Average EC50.
Text: as §1

For test [24], the system named is HCV replicon with NS5A genotype 6a T58N variant. The experiment in a line: Transient chimeric replicon assay, genotype 6a T58N. Particulars: Hepatitis C virus, read-out: Average EC50.
Text: as §1

Test [25] relates to HCV replicon with NS5A genotype 3a M28T variant. The test is described as follows: Transient chimeric replicon assay, genotype 3a M28T. The following applies: Hepatitis C virus, read-out: Average EC50.
Text: as §1

The test system of test [26] is HCV replicon with NS5A genotype 2b L31V variant. The experiment in a line: Transient chimeric replicon assay, genotype 2b L31V. Particulars: Hepatitis C virus, read-out: Average EC50.
Text: as §1

Test [27] concerns HCV replicon with NS5A genotype 5a L31V variant. The test is described as follows: Transient chimeric replicon assay, genotype 5a L31V. Particulars: Hepatitis C virus, read-out: Average EC50.
Text: as §1

Test [28] relates to HCV replicon with NS5A genotype 4a L28V variant. The experiment in a line: Transient chimeric replicon assay, genotype 4a L28V. The following applies: Hepatitis C virus, read-out: Average EC50.
Text: as §1

For `COC(=O)N[C@H](C(=O)N1CCC[C@H]1c1nc2cc([C@H]3CC[C@H](c4cc5nc([C@@H]6CCCN6C(=O)[C@@H](NC(=O)OC)[C@@H](C)OC)[nH]c5cc4F)N3c3cc(F)c(N4CCC(c5ccc(F)cc5)CC4)c(F)c3)c(F)cc2[nH]1)[C@@H](C)OC` [Compound 1, methyl {(2S,3R)-1-[(2S)-2-{5-[(2R,5R)-1-{3,5-difluoro-4-[4-(4-fluorophenyl)piperidin-1-yl]phenyl}-5-(6-fluoro-2-{(2S)-1-[N-(methoxycarbonyl)-O-methyl-L-threonyl]pyrrolidin-2-yl}-1H-benzimidazol-5-yl)pyrrolidin-2-yl]-6-fluoro-1H-benzimidazol-2-yl}pyrrolidin-1-yl]-3-methoxy-1-oxobutan-2-yl}carbamate], the EC50 (commonly the concentration that produces a half-maximal response) in [1] was 0.0013 nM; in [2], 0.001 nM; in [3], 0.0015 nM; in [4], 0.0019 ± 0.0006 nM; in [5] it was 0.0019 nM; in [6], 0.001 nM. The EC50 in test [7] is 0.0028 ± 0.0007 nM; in test [8], 0.0043 ± 0.0017 nM; in test [9], 0.0014 nM; in test [10], 0.0018 ± 0.0009 nM; in [11] it was 0.0014 ± 0.0004 nM; in test [12] it was 0.0018 nM. The half-maximal effective concentration (EC50) in [13] was 0.0011 nM; in test [14] it was 0.001 nM; in test [15], 0.0023 ± 0.0007 nM; in [16], less than 10000 nM; in test [17], 0.0043 nM; in test [18] it was 0.0019 ± 0.0006 nM. For the same molecule, the 50% effective concentration (EC50) in test [19] was 0.0013 nM; in test [20] it was 0.0021 ± 0.0007 nM; in test [21], 0.001 nM; in test [22], less than 5000 nM; in test [23], 0.0011 nM; in test [24] it was 0.0025 nM.
On to `COC(=O)N[C@H](C(=O)N1CCC[C@H]1C(=O)Nc1ccc([C@@H]2CC[C@@H](c3ccc(NC(=O)[C@@H]4CCCN4C(=O)[C@@H](NC(=O)OC)C(C)C)cc3)N2c2ccc(C(C)(C)C)cc2)cc1)C(C)C` [reference compound, reference compound], for which the EC50 amounted to 0.092 nM in test [1]; 5.04 nM in test [2]; 1.15 nM in test [3]; 0.263 nM in test [5]; 0.08 nM in test [9]; 3.03 nM in test [25]. The concentration giving a half-maximal response (EC50) in test [12] is 0.0072 nM; in test [13], 0.039 nM; in [14] it was 0.072 nM; in test [17] it was more than 100 nM; in test [26], 0.427 nM; in [19], 0.0034 nM. Further, the concentration for a half-maximal effect (EC50) in [27] is 0.221 nM; in test [21], 0.0011 nM; in test [28], 0.0053 nM; in test [24], 8.47 nM.

The values above are taken from US20140080868A1, “Methods for Treating HCV” (priority 2012, published 2014).
